The values below come from article PMC4552634, “A New Set of Chemical Starting Points with Plasmodium falciparum Transmission-Blocking Potential for Antimalarial Drug Discovery” (PLoS ONE, 2015).

One data set has as its system HepG2 cells. As to the kind of experiment: Cytotoxicity in HepG2 cells (intracellular ATP, ATPlite, 48 h). The class given is cell-based, human. Particulars: HepG2 cells; IC50 per ratio column head; unit inferred.
Data set [1] deals with P. falciparum asexual stages. Particulars: asexual stages; TCAMS data; read-out: IC50 asexual; cited from earlier work.
The subject of data set [2] is P. falciparum stage V gametocytes. Kind of data set: Gametocytocidal ATP bioluminescence assay (single point 5 μM and 1 μM, dose-response). The class given is cell-based, Plasmodium falciparum. Particulars: for Ratio IC50 HepG2/IC50 P. falciparum: IC50 HepG2 divided by IC50 P. falciparum gametocytes.
Procedure: Purified stage IV-V gametocytes were obtained as previously described [10]. Single point ATP bioluminescence assay and dose–response of positive hits was determined in accordance with the previously published protocol [10].
The test system is the same in data set [3]. Kind of data set: microbe, parasite or virus in culture. Details: BacTiter-Glo ATP luminescence viability of purified stage V gametocytes in 384-well plates, per cent inhibition versus DMSO. Particulars: Plasmodium falciparum, 48 h, read-out: % Inhibition.
Setting [4] is: P. falciparum gametocytes, average, read-out: IC50 Pf Gametocytes average, IC50 (µM) average.

As usually defined, the IC50 is the concentration needed to halve the response being measured. In general, inhibition refers to the drop in the measured response relative to a control, in per cent.

The structures appear in SMILES notation. Where two headings read alike, the source gives them in different places.

In the case of `CCN(CC)CCCNc1ncc2c(-c3ccc(NC(=O)Nc4cc(C(F)(F)F)ccc4F)cc3)nn(C)c2n1` [TCMDC-141583], the IC50 with HepG2 cells was 9.5 µM; in data set [1], 0.22 µM; in data set [2] (setting [4]), 3.48 µM. Besides, the “Ratio IC50 HepG2/IC50 P. falciparum” value in data set [2] is 2.73. Consider `CCN(Cc1ccc(-c2ccc(C(F)(F)F)cc2)cc1)C(=O)Cn1c(SCc2cccc(F)c2F)cc(=O)c2cc(CN3CCCCC3)ccc21` [TCMDC-141592], for which the IC50 was 4.2 µM with HepG2 cells; 0.801 µM in data set [1]; 2.34 µM in data set [2] (setting [4]); 2.33 µM in data set [2] (sexual stages (gametocytes), dose-response, read-out: IC50 sexual). For the same compound, in data set [2], the “Ratio IC50 HepG2/IC50 P. falciparum” value turned out to be 1.8. Take `O=C(O)CCSSc1cccc[n+]1[O-]` [TCMDC-141973]: the figures for the IC50 (in the data set with HepG2 cells; in data set [1]; in data set [2] (setting [4])) were 7.8 µM, 0.808 µM and 0.27 µM, respectively. Also, the “Ratio IC50 HepG2/IC50 P. falciparum” value in data set [2] was found to be 29. In the case of `Cc1ccc2nc(C)cc(N/N=C/c3ccc([N+](=O)[O-])cc3)c2c1` [TCMDC-142070], the half-maximal inhibitory concentration (IC50) with HepG2 cells is 0.19 µM; in data set [1] it was 0.793 µM; in data set [2] (setting [4]), 9.41 µM. The “Ratio IC50 HepG2/IC50 P. falciparum” value in data set [2] is 0.0202.

For the compound `Fc1ccccc1C=NNc1ccnc2ccccc12` [TCMDC-142101], in data set [3], the inhibition at 5 µM was -64.6%. Same read-out and setting: with `O=[N+]([O-])c1ccccc1C=NNc1ccnc2ccccc12` [TCMDC-142102] the figure was -47.5%. On the same count and under the same terms, in the case of `FC(F)(F)c1ccc2nccc(NN=Cc3ccc(Cl)cc3)c2c1` [TCMDC-142103] it was 1.69%; in that of `Fc1ccccc1C=NNc1ccnc2ccc(C(F)(F)F)cc12` [TCMDC-142104], -68.2%; in that of `COc1ccc2c(NN=Cc3ccc(Cl)cc3)ccnc2c1` [TCMDC-142105], -15.3%.

For the compound `COc1cccc2c(NN=Cc3ccc(Cl)cc3)ccnc12` [TCMDC-142106], the inhibition at 5 µM in data set [3] was -26.4%. The same measure, in the same setting: with `COc1cccc2c(NN=Cc3cccc(F)c3)ccnc12` [TCMDC-142107] the figure was 74.3%. In the case of `COc1ccc2c(N/N=C/c3ccc([N+](=O)[O-])cc3)ccnc2c1` [TCMDC-142108], the inhibition at 5 µM in data set [3] amounted to 91.3%. Still for that read-out and setting: in the case of `COc1cccc2c(N/N=C/c3ccc([N+](=O)[O-])cc3)ccnc12` [TCMDC-142109] it was 64%. Take `COc1ccc2nccc(NN=Cc3ccccc3)c2c1` [TCMDC-142110]: in data set [3], the inhibition at 5 µM was 31.2%. On the same count and under the same terms, in the case of `COc1ccc2c(NN=Cc3ccccc3)ccnc2c1` [TCMDC-142111] it was 89.4%; in that of `Fc1ccc2c(NN=CC=Cc3ccccc3)ccnc2c1` [TCMDC-142112], 93.5%; in that of `Cc1ccc2c(NN=Cc3ccc(Cl)cc3)cc(C)nc2c1` [TCMDC-142113], 40.7%. Turning to `Cc1cc(NN=Cc2ccccc2Cl)c2cccc(C)c2n1` [TCMDC-142114], the inhibition at 5 µM in data set [3] was 48.6%. The same measure, in the same setting: in the case of `Cc1cc(NN=Cc2ccc(Cl)cc2)c2cccc(C)c2n1` [TCMDC-142115] it was -40.8%; in that of `COc1cccc2c(NN=Cc3ccccc3Cl)cc(C)nc12` [TCMDC-142116], 23.3%.

For the compound `COc1cccc2c(NN=Cc3cccc(Cl)c3)cc(C)nc12` [TCMDC-142117], the inhibition at 5 µM in data set [3] stood at 27.1%. With `COc1ccc2c(NN=Cc3ccccc3F)cc(C)nc2c1` [TCMDC-142118], the inhibition at 5 µM in data set [3] was -19.6%. Still for that read-out and setting: with `COc1ccc2c(NN=Cc3ccccc3)cc(C)nc2c1` [TCMDC-142119] the figure was 7.88%. On to `COc1ccc2c(NN=Cc3cccc(C)n3)cc(-c3ccccc3)nc2c1` [TCMDC-142120], for which the inhibition at 5 µM in data set [3] is -50.4%.

Take `CN=C(Nc1c(Cl)cccc1Cl)N(C)C` [TCMDC-142121]: the inhibition at 5 µM in data set [3] was determined as 5.95%. On the same count and under the same terms, in the case of `Fc1ccc2nccc(NN=Cc3ccccc3Cl)c2c1` [TCMDC-142122] it was -2.19%. Same read-out and setting: with `Fc1ccc2nccc(NN=CC=Cc3ccccc3)c2c1` [TCMDC-142123] the figure was -73.4%. On the same count and under the same terms, in the case of `COc1ccc2nccc(NN=Cc3ccc(Cl)cc3)c2c1` [TCMDC-142124] it was 58.2%. In the case of `COc1ccc2nccc(NN=Cc3cccc(Cl)c3)c2c1` [TCMDC-142125], in data set [3], the inhibition at 5 µM turned out to be 11.8%.

Take `COc1ccc2nccc(NN=Cc3ccccc3Cl)c2c1` [TCMDC-142126]: the inhibition at 5 µM in data set [3] was determined as 20.5%. Same read-out and setting: with `COc1ccc2c(NN=Cc3ccccc3Cl)ccnc2c1` [TCMDC-142127] the figure was -22.2%; with `COc1ccc2c(NN=Cc3cccc(Cl)c3)ccnc2c1` [TCMDC-142128], 98.7%; with `COc1cccc2c(NN=Cc3cccc(Cl)c3)ccnc12` [TCMDC-142129], 91.8%. Still for that read-out and setting: with `COc1ccc2nccc(NN=Cc3ccccc3F)c2c1` [TCMDC-142130] the figure was 6.1%. The same measure, in the same setting: in the case of `COc1ccc2nccc(NN=Cc3cccc(F)c3)c2c1` [TCMDC-142131] it was 82.2%. Take `COc1ccc2nccc(NN=Cc3ccc(F)cc3)c2c1` [TCMDC-142132]: the inhibition at 5 µM in data set [3] is 32.1%. The same measure, in the same setting: with `COc1ccc2c(NN=Cc3ccccc3F)ccnc2c1` [TCMDC-142133] the figure was 84.6%. On to `COc1ccc2c(NN=Cc3cccc(F)c3)ccnc2c1` [TCMDC-142134], for which the inhibition at 5 µM in data set [3] was determined as 99%. Same read-out and setting: with `COc1ccc2c(NN=Cc3ccc(F)cc3)ccnc2c1` [TCMDC-142135] the figure was 5.77%; with `COc1ccc2nccc(NN=Cc3ccccc3[N+](=O)[O-])c2c1` [TCMDC-142136], 27.9%.

Take `COc1ccc2nccc(NN=Cc3cccc([N+](=O)[O-])c3)c2c1` [TCMDC-142137]: the inhibition at 5 µM in data set [3] stood at 53.9%. Still for that read-out and setting: with `COc1ccc2c(N/N=C/c3cccc([N+](=O)[O-])c3)ccnc2c1` [TCMDC-142138] the figure was 79.5%; with `COc1ccc2nccc(NN=Cc3ccc([N+](=O)[O-])cc3)c2c1` [TCMDC-142139], -3.02%.

With `COc1ccc2c(N/N=C/c3ccccc3[N+](=O)[O-])ccnc2c1` [TCMDC-142140], in data set [3], the inhibition at 5 µM is 101%. Same read-out and setting: in the case of `COc1cccc2c(N/N=C/c3ccccc3[N+](=O)[O-])ccnc12` [TCMDC-142141] it was 90.8%; in that of `COc1cccc2c(N/N=C/c3cccc([N+](=O)[O-])c3)ccnc12` [TCMDC-142142], -28.6%.

With `COc1ccc2nccc(NN=CC=Cc3ccccc3)c2c1` [TCMDC-142143], the inhibition at 5 µM in data set [3] turned out to be 39%. Same read-out and setting: in the case of `COc1ccc2c(NN=CC=Cc3ccccc3)ccnc2c1` [TCMDC-142144] it was -5.92%. Same read-out and setting: with `COc1ccc2nccc(NN=Cc3ccc(N(C)C)cc3)c2c1` [TCMDC-142145] the figure was -119%; with `COc1ccc2c(NN=Cc3ccc(N(C)C)cc3)ccnc2c1` [TCMDC-142146], 97.5%. For `FC(F)(F)c1ccc2nccc(NN=Cc3ccccc3Cl)c2c1` [TCMDC-142147], the inhibition at 5 µM in data set [3] is -24.8%. Still for that read-out and setting: in the case of `FC(F)(F)c1ccc2nccc(NN=Cc3cccc(Cl)c3)c2c1` [TCMDC-142148] it was 56%; in that of `FC(F)(F)c1ccc2c(NN=Cc3cccc(Cl)c3)ccnc2c1` [TCMDC-142149], -44.9%. Still for that read-out and setting: with `O=[N+]([O-])c1cccc(/C=N/Nc2ccnc3ccc(C(F)(F)F)cc23)c1` [TCMDC-142150] the figure was 7.31%; with `Fc1cccc(C=NNc2ccnc3ccc(C(F)(F)F)cc23)c1` [TCMDC-142151], -62.1%. Consider `Fc1ccc(C=NNc2ccnc3ccc(C(F)(F)F)cc23)cc1` [TCMDC-142152], for which the inhibition at 5 µM in data set [3] was -15.6%. Still for that read-out and setting: in the case of `FC(F)(F)c1ccc2nccc(NN=CC=Cc3ccccc3)c2c1` [TCMDC-142153] it was -25.7%; in that of `Cc1cc(NN=Cc2ccccc2Cl)c2cc(C(F)(F)F)ccc2n1` [TCMDC-142154], -77.2%; in that of `Cc1cc(NN=Cc2ccc(Cl)cc2)c2cc(C(F)(F)F)ccc2n1` [TCMDC-142155], -3.11%. For `Cc1cc(N/N=C/c2ccccc2[N+](=O)[O-])c2cc(C(F)(F)F)ccc2n1` [TCMDC-142157], the inhibition at 5 µM in data set [3] was 4.83%. The same measure, in the same setting: with `Cc1cc(NN=Cc2ccc(F)cc2)c2cc(C(F)(F)F)ccc2n1` [TCMDC-142158] the figure was -75.7%. Still for that read-out and setting: with `Cc1cc(NN=Cc2ccc(F)cc2)c2ccc(C(F)(F)F)cc2n1` [TCMDC-142159] the figure was -183%. Still for that read-out and setting: in the case of `Cc1cc(NN=Cc2ccc(Cl)cc2)c2ccc(F)cc2n1` [TCMDC-142160] it was -41.4%; in that of `Cc1cc(NN=Cc2cccc(Cl)c2)c2ccc(F)cc2n1` [TCMDC-142161], -34%.

Take `Cc1cc(NN=Cc2ccccc2Cl)c2ccc(F)cc2n1` [TCMDC-142162]: the inhibition at 5 µM in data set [3] was -52.4%.

For `Cc1cc(NN=Cc2ccc(Cl)cc2)c2cc(F)ccc2n1` [TCMDC-142163], the inhibition at 5 µM in data set [3] stood at 56.5%.

For `Cc1cc(NN=Cc2cccc(Cl)c2)c2cc(F)ccc2n1` [TCMDC-142164], the inhibition at 5 µM in data set [3] was -59.6%. Take `Cc1cc(NN=Cc2ccccc2Cl)c2cc(F)ccc2n1` [TCMDC-142165]: the inhibition at 5 µM in data set [3] was -39.2%. On the same count and under the same terms, in the case of `Cc1cc(N/N=C/c2cccc([N+](=O)[O-])c2)c2cc(F)ccc2n1` [TCMDC-142166] it was -21.6%; in that of `Cc1cc(N/N=C/c2ccccc2[N+](=O)[O-])c2cc(F)ccc2n1` [TCMDC-142167], -36.5%; in that of `Cc1cc(N/N=C/c2ccccc2[N+](=O)[O-])c2ccc(F)cc2n1` [TCMDC-142168], -45.1%. On the same count and under the same terms, in the case of `Cc1cc(N/N=C/c2cccc([N+](=O)[O-])c2)c2ccc(F)cc2n1` [TCMDC-142169] it was 109%; in that of `Cc1cc(N/N=C/c2ccc([N+](=O)[O-])cc2)c2ccc(F)cc2n1` [TCMDC-142170], 105%; in that of `Cc1cc(NN=Cc2ccccc2F)c2cc(F)ccc2n1` [TCMDC-142171], -53.4%.
